The values below come from paper PMC8585091, “Central Carbon Metabolism, Sodium-Motive Electron Transfer, and Ammonium Formation by the Vaginal Pathogen Prevotella bivia” (International Journal of Molecular Sciences, 2021).

This experiment concerns the target T1, cytochrome bd quinol oxidase (Prevotella bivia, UniProt I4Z6X5).
T1 construct: gene PrebiDRAFT_0174; native complex in DDM-solubilized membranes, not purified; ORFs cyd-2 1143 bp and cyd-1 1536 bp; with Cytochrome bd ubiquinol oxidase subunit II
T1 sequence (I4Z6X5 1-511): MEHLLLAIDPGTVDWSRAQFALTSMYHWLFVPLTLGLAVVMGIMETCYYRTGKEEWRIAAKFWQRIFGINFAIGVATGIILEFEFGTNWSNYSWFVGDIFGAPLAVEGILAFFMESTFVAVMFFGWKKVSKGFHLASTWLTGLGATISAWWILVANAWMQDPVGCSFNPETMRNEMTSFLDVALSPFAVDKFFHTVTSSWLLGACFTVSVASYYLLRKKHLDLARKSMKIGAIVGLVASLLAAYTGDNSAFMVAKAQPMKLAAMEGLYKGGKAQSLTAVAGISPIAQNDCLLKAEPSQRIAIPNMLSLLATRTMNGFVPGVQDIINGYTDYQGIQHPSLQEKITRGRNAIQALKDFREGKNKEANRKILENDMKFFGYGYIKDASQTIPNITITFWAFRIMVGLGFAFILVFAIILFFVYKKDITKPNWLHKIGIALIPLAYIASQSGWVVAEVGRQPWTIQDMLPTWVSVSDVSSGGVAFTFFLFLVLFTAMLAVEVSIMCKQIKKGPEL
T1 sequence (I4Z6X4 1-380 partner): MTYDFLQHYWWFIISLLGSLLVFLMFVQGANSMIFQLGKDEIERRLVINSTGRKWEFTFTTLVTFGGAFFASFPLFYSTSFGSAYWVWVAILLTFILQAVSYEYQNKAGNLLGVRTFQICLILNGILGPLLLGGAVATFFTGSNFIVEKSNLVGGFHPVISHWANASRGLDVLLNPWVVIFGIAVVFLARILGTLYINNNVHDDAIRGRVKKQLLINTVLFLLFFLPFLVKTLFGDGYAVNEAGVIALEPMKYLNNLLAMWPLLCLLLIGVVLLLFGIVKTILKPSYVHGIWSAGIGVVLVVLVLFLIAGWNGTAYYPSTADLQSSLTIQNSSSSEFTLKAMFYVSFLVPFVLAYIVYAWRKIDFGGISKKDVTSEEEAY
Nature of the experiment: DMNH2 oxidation with H2O2 (peroxidase activity), double-beam photometer. In kind it is biochemical. The following applies: solubilized membranes; 200 µM DMNH2, H2O2 as acceptor, pH 7.0, 100 mM NaCl, anoxic.

`Cc1c(C)c(O)c2ccccc2c1O` [2,3-dimethyl-1,4-naphthoquinol]: the “DMNH2 oxidation with H2O2 (peroxidase activity), double-beam photometer” value is reported as “Solubilized membranes catalyzed the oxidation of the DMNH2 with H2O2 as an electron acceptor”.
